Data reported in PMC11876601 (Molecular Systems Biology, 2025).
Where two headings read alike, the source gives them in different places.

Experiments:
Assay in all cases: cells
[1] = system: AsPC-1; parameters: Viability of PDAC cell lines, ATPlite luminescence, 11-dose single-agent curve fit; conditions: Homo sapiens, ASPC1, 72 h, read-out: EC50 [nM]
Procedure, shortened: (§1)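 screening used cells plated at 1000 to 5000 per well one day before treatment. Final DMSO was 0.2%. Each plate held untreated negative-control wells and 5 µM staurosporine positive-control wells.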

[2] = system: Colo-357; parameters: Viability of PDAC cell lines, ATPlite luminescence, 11-dose single-agent curve fit; conditions: Homo sapiens, COLO357, 72 h, read-out: EC50 [nM]
Procedure, shortened: as §1

[3] = system: PANC-1; parameters: Viability of PDAC cell lines, ATPlite luminescence, 11-dose single-agent curve fit; conditions: Homo sapiens, PANC-1, 72 h, read-out: EC50 [nM]
Procedure, shortened: as §1

[4] = system: BxPC-3; parameters: Viability of PDAC cell lines, ATPlite luminescence, 11-dose single-agent curve fit; conditions: Homo sapiens, BXPC-3, 72 h, read-out: EC50 [nM]
Procedure, shortened: as §1

[5] = system: Suit2-07; parameters: Viability of PDAC cell lines, ATPlite luminescence, 11-dose single-agent curve fit; conditions: 72 h, read-out: EC50 [nM]
Procedure, shortened: as §1

[6] = system: PaTu-8988-T; parameters: Viability of PDAC cell lines, ATPlite luminescence, 11-dose single-agent curve fit; conditions: Homo sapiens, PaTu 8988t, 72 h, read-out: EC50 [nM]
Procedure, shortened: as §1

[7] = system: HuP-T4; parameters: Viability of PDAC cell lines, ATPlite luminescence, 11-dose single-agent curve fit; conditions: Homo sapiens, HuP-T4, 72 h, read-out: EC50 [nM]
Procedure, shortened: as §1

[8] = system: Dan-G; parameters: Viability of PDAC cell lines, ATPlite luminescence, 11-dose single-agent curve fit; conditions: 72 h, read-out: EC50 [nM]
Procedure, shortened: as §1

[9] = system: PSN-1; parameters: Viability of PDAC cell lines, ATPlite luminescence, 11-dose single-agent curve fit; conditions: Homo sapiens, PSN1, 72 h, read-out: EC50 [nM]
Procedure, shortened: as §1

[10] = system: Capan-1; parameters: Viability of PDAC cell lines, ATPlite luminescence, 11-dose single-agent curve fit; conditions: Homo sapiens, CAPAN-1, 72 h, read-out: EC50 [nM]
Procedure, shortened: as §1

[11] = system: HPDE; parameters: Viability of PDAC cell lines, ATPlite luminescence, 11-dose single-agent curve fit; conditions: HPDE, 72 h, read-out: EC50 [nM]
Procedure, shortened: as §1

[12] = system: MiaPaCa-2; parameters: Viability of PDAC cell lines, ATPlite luminescence, 11-dose single-agent curve fit; conditions: Homo sapiens, MIA PaCa-2, 72 h, read-out: EC50 [nM]
Procedure, shortened: as §1

[13] = system: FAMPAC; parameters: Viability of PDAC cell lines, ATPlite luminescence, 11-dose single-agent curve fit; conditions: 72 h, read-out: EC50 [nM]
Procedure, shortened: as §1

[14] = system: PaTu-8988-T; parameters: ATPlite luminescence viability of PDAC cell lines, 11-dose single-agent curves, 4-parameter fit; conditions: Homo sapiens, PaTu 8988t, 72 h, read-out: EC50 [nM]
Method: (§2) Afterward, small amounts were transferred to 384-well intermediate plates (Greiner Bio-One GmbH, Germany). […] For drug combination screening, 1000 to 5000 cells were seeded into 384-well plates (CulturPlate™, Perkin Elmer, MA, USA) using a Multidrop™ Combi Reagent Dispenser (Thermo Scientific, MA, USA) in 50 µl medium per well 24 h prior to drug treatment (seeding densities see Appendix Table S1). […] The final DMSO concentration in each well was 0.2%. […] Eight wells per plate without library drug served as negative controls, and sixteen wells per plate containing 5 µM Staurosporine served as positive controls. […] Next, we analyzed the drug sensitivity of immortalized duct cell line HPDE to detect effects unrelated to pancreatic cancer.

[15] = system: MiaPaCa-2; parameters: ATPlite luminescence viability of PDAC cell lines, 11-dose single-agent curves, 4-parameter fit; conditions: Homo sapiens, MIA PaCa-2, 72 h, read-out: EC50 [nM]
Method: as §2

[16] = system: Dan-G; parameters: ATPlite luminescence viability of PDAC cell lines, 11-dose single-agent curves, 4-parameter fit; conditions: 72 h, read-out: EC50 [nM]
Method: as §2

[17] = system: FAMPAC; parameters: ATPlite luminescence viability of PDAC cell lines, 11-dose single-agent curves, 4-parameter fit; conditions: 72 h, read-out: EC50 [nM]
Method: as §2

Row | SMILES | EC50 [1] [nM] | EC50 [2] [nM] | EC50 [3] [nM] | EC50 [4] [nM] | EC50 [5] [nM] | EC50 [6] [nM] | EC50 [7] [nM] | EC50 [8] [nM] | EC50 [9] [nM] | EC50 [10] [nM] | EC50 [11] [nM] | EC50 [12] [nM] | EC50 [13] [nM] | EC50 [14] [nM] | EC50 [15] [nM] | EC50 [16] [nM] | EC50 [17] [nM]
1 | CNC(=O)c1c(C)oc2cc(Oc3ncnc4cc(OC)c(OC)cc34)ccc12 [Fruquintinib] | 596 | 5.08 | 20.4 | 0.01 | 0.05 | 1810 | 653 | 1.05 | 5.57 | 32.9 | 552 | 2740 | 1660 | – | – | – | –
2 | Cc1cc2cc(Oc3ccnc(Nc4cccc(CS(=O)(=O)NCCN(C)C)c4)n3)ccc2[nH]1 [Sulfatinib] | > 10000 | 6810 | 7980 | 4560 | > 10000 | – | 1900 | > 10000 | 5780 | 3530 | 5550 | – | > 10000 | > 10000 | 3080 | – | –
3 | CC[C@@H]1CN(C(=O)NCC(F)(F)F)C[C@@H]1c1cnc2cnc3[nH]ccc3n12 [Upadacitinib] | 137 | 1.06 | 215 | 704 | 6.77 | > 10000 | 973 | 309 | 7050 | 0.18 | 26.9 | 1590 | 49 | – | – | – | –
4 | Cc1[nH]c(/C=C2\C(=O)Nc3ccccc32)c(C)c1CCC(=O)O [Orantinib] | 145 | 2.98 | 568 | 1040 | 2.77 | 135 | 2430 | 487 | 366 | 17.6 | 61.9 | 47 | 0.01 | – | – | – | –
5 | Clc1ccc(Nc2nnc(Cc3ccncc3)c3ccccc23)cc1 [Vatalanib] | > 10000 | 3990 | > 10000 | 9360 | > 10000 | 3840 | 23.9 | 6860 | 4870 | 4530 | 32.8 | > 10000 | 6650 | – | – | – | –
6 | Cc1cc(F)c(C(=O)Nc2cccc(-c3nncn3C(C)C)n2)cc1-n1cnc(C2CC2)c1 [Selonsertib] | 755 | > 10000 | 8800 | > 10000 | 4310 | 5440 | 3.85 | 10300 | 6150 | 8570 | > 10000 | 4950 | > 10000 | – | – | – | –
7 | O=C(c1cc(Cc2n[nH]c(=O)c3ccccc23)ccc1F)N1CCN(C(=O)C2CC2)CC1 [Olaparib] | 446 | 7820 | > 10000 | 3550 | 9600 | 1870 | 3200 | – | > 10000 | > 10000 | 1490 | 5000 | – | – | – | 3940 | 8230
8 | FC(F)(F)c1ccc(CNc2ccc(Cc3c[nH]c4ncc(Cl)cc34)cn2)cn1 [Pexidartinib] | 9890 | 10100 | 2210 | 8880 | 1100 | 46.5 | 4690 | 6180 | 6940 | > 10000 | 10200 | 2640 | 4000 | – | – | – | –
